Data on eight molecules can be found in US6696439B1, “5-HT1F agonists” (Eli Lilly and Company, priority 1999, dated 2004).

SMILES strings stand for the structures.

`CN(C)CCc1coc2ccc(NC(=O)c3ccc(F)cc3)nc12.O=C(O)C(=O)O`: the melting point lay in the range of 124 to 126 °C.
`CCC(=O)Nc1ccc2occ(CCN(C)C)c2n1.O=C(O)C(=O)O` returned a melting point of 153 to 155 °C.
Consider `CCC(=O)Nc1ccc2oc(C)c(CCN(C)C)c2n1.O=C(O)C(=O)O`, for which the melting point fell in the range of 168 to 170 °C.
For `CN(C)CCc1coc2ccc(NC(=O)c3ccccc3)nc12.O=C(O)C(=O)O` the value was 65 to 66 °C; for `Cc1oc2ccc(NC(=O)c3ccccc3)nc2c1CCN(C)C`, 119 to 120 °C.
For `Cc1oc2ccc(NC(=O)c3cccs3)nc2c1CCN(C)C.O=C(O)C(=O)O` the value was 211 to 212 °C; for `CN(C)CCc1coc2ccc(NC(=O)c3cccs3)nc12.O=C(O)C(=O)O`, 68 to 69 °C; for `Cc1oc2ccc(NC(=O)c3ccc(F)cc3)nc2c1CCN(C)C.O=C(O)C(=O)O`, 136 to 138 °C.

For orientation: melting point means the temperature, or range, at which the solid turns liquid.
